Measured values: PubChem BioAssay AID212 (DTP/NCI, 2004)
Where “and” joins values, the source holds several entries; their conditions need not be identical. Equal entries are not always repeated. Inconclusive results are not listed.

System: BDF1 mice, colon carcinoma 38 sc, T/C %
Experiment: NCI In Vivo Anticancer Drug Screen. Data for tumor model Colon Carcinoma 38 (subcutaneous) in B6D2F1 (BDF1) mice
Outline: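 Compound antitumor activity was assessed in mice carrying transplantable tumors. Survival or tumor size was recorded, and each value is the treated-group measurement divided by that of the vehicle-treated control group.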

[1] = endpoint: median tumor weight (est.), dose: 25.0 mg/kg/injection, schedule: Q07DX002 (ip), vehicle: saline with Tween-80, higher = larger tumour
[2] = endpoint: median tumor weight (est.), dose: 50.0 mg/kg/injection, schedule: Q07DX002 (ip), vehicle: saline with Tween-80, higher = larger tumour
[3] = endpoint: median tumor weight (est.), dose: 400.0 mg/kg/injection, schedule: Q07DX002 (ip), vehicle: saline with Tween-80, higher = larger tumour
[4] = endpoint: median tumor weight (est.), dose: 100.0 mg/kg/injection, schedule: Q07DX002 (ip), vehicle: saline with Tween-80, higher = larger tumour
[5] = endpoint: median tumor weight (est.), dose: 200.0 mg/kg/injection, schedule: Q07DX002 (ip), vehicle: saline with Tween-80, higher = larger tumour
[6] = endpoint: median tumor weight (est.), dose: 25.0 mg/kg/injection, schedule: Q07DX002 (ip), vehicle: Klucel (hydroxypropylcellulose) (HPC), higher = larger tumour

O=c1[nH]cnc2c1ncn2C1OC(CO)C(O)C1O (stereo not given)
T/C (endpoint: median survival time, dose: 250.0 mg/kg/injection, schedule: Q04DX004 (ip), vehicle: saline with Tween-80, higher = longer survival): 108 % of control | T/C (endpoint: median survival time, dose: 250.0 mg/kg/injection, schedule: Q04DX004 (ip), vehicle: saline, higher = longer survival): 107 % of control | T/C (endpoint: median survival time, dose: 500.0 mg/kg/injection, schedule: Q04DX004 (ip), vehicle: saline with Tween-80, higher = longer survival): 121 % of control | T/C (endpoint: median survival time, dose: 500.0 mg/kg/injection, schedule: Q04DX004 (ip), vehicle: saline, higher = longer survival): 120 % of control | T/C (endpoint: median survival time, dose: 1000.0 mg/kg/injection, schedule: Q04DX004 (ip), vehicle: saline with Tween-80, higher = longer survival): 60 % of control | T/C (endpoint: median survival time, dose: 1000.0 mg/kg/injection, schedule: Q04DX004 (ip), vehicle: saline, higher = longer survival): 58 % of control

C(CSC1=NCCN1)CSC1=NCCN1
T/C (endpoint: median tumor weight (est.), dose: 25.0 mg/kg/injection, schedule: Q07DX002 (ip), vehicle: saline, higher = larger tumour): 112 % of control | T/C (endpoint: median tumor weight (est.), dose: 50.0 mg/kg/injection, schedule: Q07DX002 (ip), vehicle: saline, higher = larger tumour): 96 % of control | T/C (endpoint: median tumor weight (est.), dose: 200.0 mg/kg/injection, schedule: Q07DX002 (ip), vehicle: saline, higher = larger tumour): 120 % of control

CC(C)CCCCCCCCCCCCC(=O)NCC(=O)NC1C(O)C(O)C(Nc2ncnc3nc[nH]c23)OC1C(O)CO (stereo not given)
T/C (endpoint: median tumor weight (est.), dose: 0.13 mg/kg/injection, schedule: Q07DX002 (ip), vehicle: saline, higher = larger tumour): 110 % of control | T/C (endpoint: median tumor weight (est.), dose: 0.25 mg/kg/injection, schedule: Q07DX002 (ip), vehicle: saline, higher = larger tumour): 114 % of control | T/C (endpoint: median tumor weight (est.), dose: 1.0 mg/kg/injection, schedule: Q07DX002 (ip), vehicle: saline, higher = larger tumour): 71 % of control | T/C (endpoint: median tumor weight (est.), dose: 1.0 mg/kg/injection, schedule: Q07DX002 (ip), vehicle: suspension in saline, higher = larger tumour): 114 % of control | T/C (endpoint: median tumor weight (est.), dose: 2.0 mg/kg/injection, schedule: Q07DX002 (ip), vehicle: saline, higher = larger tumour): 87 % of control | T/C (endpoint: median tumor weight (est.), dose: 2.0 mg/kg/injection, schedule: Q07DX002 (ip), vehicle: suspension in saline, higher = larger tumour): 113 % of control | T/C (endpoint: median tumor weight (est.), dose: 4.0 mg/kg/injection, schedule: Q07DX002 (ip), vehicle: saline, higher = larger tumour): 76 % of control | T/C (endpoint: median tumor weight (est.), dose: 4.0 mg/kg/injection, schedule: Q07DX002 (ip), vehicle: suspension in saline, higher = larger tumour): 42 % of control

CCOC(OCC)C(=O)OCC(=O)[C@]1(O)Cc2c(O)c3c(c(O)c2[C@@H](OC2CC(N)C(O)C(C)O2)C1)C(=O)c1c(OC)cccc1C3=O (stereo not given in full)
T/C (endpoint: median tumor weight (est.), dose: 0.5 mg/kg/injection, schedule: Q07DX002 (ip), vehicle: water, higher = larger tumour): 85 % of control | T/C (endpoint: median tumor weight (est.), dose: 2.0 mg/kg/injection, schedule: Q07DX002 (ip), vehicle: water, higher = larger tumour): 107 % of control | T/C (endpoint: median tumor weight (est.), dose: 4.0 mg/kg/injection, schedule: Q07DX002 (ip), vehicle: water, higher = larger tumour): 88 % of control

CCC(CC)COC(=O)c1ccccc1C(=O)OCC(CC)CC
T/C [1]: 71 % of control | T/C [2]: 92 % of control | T/C [3]: 122 % of control

O=C(O)C1Cc2nc[nH]c2CN1CO (stereo not given)
T/C [1]: 93 % of control | T/C [2]: 117 % of control and 98 % of control | T/C [4]: 113 % of control and 99 % of control | T/C [5]: 86 % of control | T/C [3]: 93 % of control | T/C (endpoint: median tumor weight (est.), dose: 800.0 mg/kg/injection, schedule: Q07DX002 (ip), vehicle: saline with Tween-80, higher = larger tumour): 89 % of control

O=C1N[C@@H]([C@H]2CC[C@H](Cl)CN2)C(=O)N[C@H]1[C@H]1CC[C@H](Cl)CN1
T/C (endpoint: median tumor weight (est.), dose: 0.31 mg/kg/injection, schedule: Q07DX003 (ip), vehicle: water, higher = larger tumour): 85 % of control | T/C (endpoint: median tumor weight (est.), dose: 0.63 mg/kg/injection, schedule: Q07DX003 (ip), vehicle: water, higher = larger tumour): 110 % of control | T/C (endpoint: median tumor weight (est.), dose: 1.25 mg/kg/injection, schedule: Q07DX003 (ip), vehicle: water, higher = larger tumour): 79 % of control | T/C (endpoint: median tumor weight (est.), dose: 2.5 mg/kg/injection, schedule: Q07DX003 (ip), vehicle: water, higher = larger tumour): 70 % of control | T/C (endpoint: median tumor weight (est.), dose: 5.0 mg/kg/injection, schedule: Q07DX003 (ip), vehicle: water, higher = larger tumour): 6 % of control

CCCCCC(O)C1C(=O)OC(C)C(O)/C=C/C=C/C=C/C=C\C=C(\C)C(O)CC(O)CC(O)CC(O)CC(O)CC(O)CC1O (stereo not given)
T/C (endpoint: median tumor weight (est.), dose: 2.5 mg/kg/injection, schedule: Q07DX002 (ip), vehicle: saline, higher = larger tumour): 105 % of control | T/C (endpoint: median tumor weight (est.), dose: 5.0 mg/kg/injection, schedule: Q07DX002 (ip), vehicle: saline, higher = larger tumour): 64 % of control | T/C (endpoint: median tumor weight (est.), dose: 20.0 mg/kg/injection, schedule: Q07DX002 (ip), vehicle: saline, higher = larger tumour): 71 % of control

CCCCCCCCCCS(=O)CC(CO)NC(=O)/C=C/c1c(C)[nH]c(=O)[nH]c1=O (stereo not given)
T/C (endpoint: median tumor weight (est.), dose: 1.5 mg/kg/injection, schedule: Q07DX002 (ip), vehicle: distilled water + Tween-80, higher = larger tumour): 76 % of control and 96 % of control | T/C (endpoint: median tumor weight (est.), dose: 3.0 mg/kg/injection, schedule: Q07DX002 (ip), vehicle: distilled water + Tween-80, higher = larger tumour): 109 % of control and 96 % of control | T/C (endpoint: median tumor weight (est.), dose: 12.0 mg/kg/injection, schedule: Q07DX002 (ip), vehicle: distilled water + Tween-80, higher = larger tumour): 112 % of control and 115 % of control | T/C (endpoint: median tumor weight (est.), dose: 48.0 mg/kg/injection, schedule: Q07DX002 (ip), vehicle: distilled water + Tween-80, higher = larger tumour): 80 % of control

O=C(O)CC(NC(=O)CP(=O)(O)O)C(=O)O.[NH-]C1CCCCC1[NH-].[Pt+2] (stereo not given)
T/C (endpoint: median tumor weight (est.), dose: 1.56 mg/kg/injection, schedule: Q07DX002 (ip), vehicle: dextrose, higher = larger tumour): 103 % of control | T/C (endpoint: median tumor weight (est.), dose: 3.12 mg/kg/injection, schedule: Q07DX002 (ip), vehicle: dextrose, higher = larger tumour): 77 % of control and 87 % of control | T/C (endpoint: median tumor weight (est.), dose: 6.25 mg/kg/injection, schedule: Q07DX002 (ip), vehicle: dextrose, higher = larger tumour): 85 % of control and 90 % of control | T/C (endpoint: median tumor weight (est.), dose: 12.5 mg/kg/injection, schedule: Q07DX002 (ip), vehicle: dextrose, higher = larger tumour): 64 % of control and 65 % of control | T/C (endpoint: median tumor weight (est.), dose: 25.0 mg/kg/injection, schedule: Q07DX002 (ip), vehicle: dextrose, higher = larger tumour): 44 % of control and 54 % of control | T/C (endpoint: median tumor weight (est.), dose: 50.0 mg/kg/injection, schedule: Q07DX002 (ip), vehicle: dextrose, higher = larger tumour): 14 % of control

O=C(CCCN1CCC(O)(c2cccc(C(F)(F)F)c2)CC1)c1ccc(F)cc1
T/C (endpoint: median tumor weight (est.), dose: 6.25 mg/kg/injection, schedule: Q07DX003 (ip), vehicle: Klucel (hydroxypropylcellulose) (HPC), higher = larger tumour): 78 % of control and 80 % of control | T/C (endpoint: median tumor weight (est.), dose: 12.5 mg/kg/injection, schedule: Q07DX003 (ip), vehicle: Klucel (hydroxypropylcellulose) (HPC), higher = larger tumour): 84 % of control and 95 % of control | T/C (endpoint: median tumor weight (est.), dose: 25.0 mg/kg/injection, schedule: Q07DX003 (ip), vehicle: Klucel (hydroxypropylcellulose) (HPC), higher = larger tumour): 113 % of control and 93 % of control | T/C (endpoint: median tumor weight (est.), dose: 50.0 mg/kg/injection, schedule: Q07DX003 (ip), vehicle: Klucel (hydroxypropylcellulose) (HPC), higher = larger tumour): 100 % of control

C=CS(C=C)=NS(=O)(=O)c1ccc(C)cc1
T/C (endpoint: median tumor weight (est.), dose: 1.56 mg/kg/injection, schedule: Q07DX002 (ip), vehicle: Klucel (hydroxypropylcellulose) (HPC), higher = larger tumour): 110 % of control | T/C (endpoint: median tumor weight (est.), dose: 6.25 mg/kg/injection, schedule: Q07DX002 (ip), vehicle: Klucel (hydroxypropylcellulose) (HPC), higher = larger tumour): 110 % of control | T/C (endpoint: median tumor weight (est.), dose: 12.5 mg/kg/injection, schedule: Q07DX002 (ip), vehicle: Klucel (hydroxypropylcellulose) (HPC), higher = larger tumour): 111 % of control | T/C [6]: 94 % of control

O=C(CO)c1ccc([N+](=O)[O-])cc1
T/C (endpoint: median tumor weight (est.), dose: 6.25 mg/kg/injection, schedule: Q07DX002 (ip), vehicle: saline with Tween-80, higher = larger tumour): 72 % of control | T/C (endpoint: median tumor weight (est.), dose: 12.5 mg/kg/injection, schedule: Q07DX002 (ip), vehicle: saline with Tween-80, higher = larger tumour): 105 % of control | T/C [1]: 90 % of control | T/C [4]: 97 % of control | T/C [5]: 80 % of control

C[C@]12CCC(=O)C(O)=C1CC[C@@H]1[C@@H]2CC[C@]2(C)C(=O)CC[C@@H]12
T/C [6]: 82 % of control | T/C (endpoint: median tumor weight (est.), dose: 50.0 mg/kg/injection, schedule: Q07DX002 (ip), vehicle: Klucel (hydroxypropylcellulose) (HPC), higher = larger tumour): 110 % of control and 101 % of control | T/C (endpoint: median tumor weight (est.), dose: 100.0 mg/kg/injection, schedule: Q07DX002 (ip), vehicle: Klucel (hydroxypropylcellulose) (HPC), higher = larger tumour): 176 % of control and 186 % of control | T/C (endpoint: median tumor weight (est.), dose: 200.0 mg/kg/injection, schedule: Q07DX002 (ip), vehicle: Klucel (hydroxypropylcellulose) (HPC), higher = larger tumour): 59 % of control and 84 % of control

COC1=C2C[C@@H](C)C[C@@H](OC)[C@@H](O)[C@H](C)/C=C(\C)[C@@H](OC(N)=O)[C@H](OC)/C=C\C=C(/C)C(=O)NC(=CC1=O)C2=O
T/C (endpoint: median tumor weight (est.), dose: 0.25 mg/kg/injection, schedule: Q07DX002 (ip), vehicle: saline with Tween-80, higher = larger tumour): 92 % of control and 100 % of control | T/C (endpoint: median tumor weight (est.), dose: 0.5 mg/kg/injection, schedule: Q07DX002 (ip), vehicle: saline with Tween-80, higher = larger tumour): 86 % of control | T/C (endpoint: median tumor weight (est.), dose: 1.0 mg/kg/injection, schedule: Q07DX002 (ip), vehicle: saline with Tween-80, higher = larger tumour): 108 % of control | T/C (endpoint: median tumor weight (est.), dose: 2.0 mg/kg/injection, schedule: Q07DX002 (ip), vehicle: saline with Tween-80, higher = larger tumour): 94 % of control | T/C (endpoint: median tumor weight (est.), dose: 4.0 mg/kg/injection, schedule: Q07DX002 (ip), vehicle: saline with Tween-80, higher = larger tumour): 98 % of control | T/C (endpoint: median tumor weight (est.), dose: 8.0 mg/kg/injection, schedule: Q07DX002 (ip), vehicle: saline with Tween-80, higher = larger tumour): 92 % of control and 94 % of control
